The source of these data is patent US20040087842A1, “Fluorescent probes for saccharrides” (priority 2002, published 2004).

The nature of data set [1]: Fluorescence titration curves against sugar (dissociation constant), D-galactose. Type of data set: binding. Particulars: stilbenes; pH 8.0; 33.3% methanol; read-out: KD D-galactose. The protocol: (§1) Stilbene-4-boronic acid (STBA), 4′-cyanostilbene-4-boronic acid (CSTBA), 4′-methoxystilbene-4-boronic acid (MSTBA) and 4′-(dimethylamino)stilbene-4-boronic acid (DSTBA) were synthesized by the Wittig reaction between the para-substituted benzaldehydes and the para-boronic acid derivative of the benzyltriphenylphosphonium bromide. This latter was synthesized by the reaction of the p-bromomethylphenylboronic acid with triphenylphosphine in toluene. […] Absorption spectrawere recorded with a Cary 50 UV-Vis spectrophotometer from Varian. Emission spectra were recorded with a Varian Eclipse spectrofluorometer from Varian. In both cases, the measurements were taken at room temperature in a 1 cm quartz cuvette. For all measurements, the absorbances of the solutions were about 0.1 corresponding to a concentration range of 2-3×10^−6 M of the fluorophore. Fluorescence quantum yields were measured against p-quaterphenyl in cyclohexane (ΦF=0.89) for trans-stilbene (ST) and STBA, anthracene in cyclohexane (φF=0.36) for CSTBA and MSTBA and Quinine sulfate in 1N sulfuric acid (ΦF=0.577) for DSTBA.
(§2) where Iacid and Ibase are the intensity limits in the acid and basic region, respectively. Titration curves against sugar were fitted and dissociation constant (KD) values were obtained using the equation: [formula]
(§3) where Io and If are the initial (no sugar) and final (plateau) intensities of the titration curves. All solutions in water and buffer contained also 33.3% […] methanol to avoid any problem due to the aggregation.

For data set [2] the following is noted: DSTBA, from reference 3; read-out: KD glucose; cited from earlier work.
For data set [3] the following is noted: DSTBA, from reference 3; read-out: KD galactose; cited from earlier work.
For data set [4] the following is noted: DSTBA, from reference 3; read-out: KD fructose; cited from earlier work.
Data set [5] is described as follows: Fluorescence titration curves against sugar (dissociation constant), D-glucose. Type of data set: binding. Particulars: stilbenes; pH 8.0; 33.3% methanol; read-out: KD D-glucose. The procedure:
as §1, §2
(§4) where Io and If are the initial (no sugar) and final (plateau) intensities of the titration curves. […]

Data set [6] in a line: Fluorescence titration curves against sugar (dissociation constant), D-fructose. Type of data set: binding. As to conditions: stilbenes; pH 8.0; 33.3% methanol; read-out: KD D-fructose. The procedure: as §1, §2, §3
Data set [7] in a line: Titration curves against pH (pKa of the boronic acid group) with and without sugar. The format is physicochemical. As to conditions: aqueous buffer solutions with methanol, stilbenes. The procedure:
Titration curves against pH were measured in buffer solutions: acetate buffer for pH 4.0-5.5, phosphate buffer for pH 6.0-9.0 and carbonate buffer for pH 10,0-11.0. Titration curves were fitted and pKa (pKa=−log Ka) values were obtained using the equation: [formula]
as §2, §4

Where two headings read alike, the source gives them in different places.

For orientation: Kd means the concentration at which binding is half-saturated. By pKa is commonly meant the pH at which an ionisable group is half protonated. On to `CN(C)c1ccc(/C=C/c2ccc(B(O)O)cc2)cc1` [DSTBA, 4′-(dimethylamino)stilbene-4-boronic acid], for which the dissociation constant (Kd) is 49 mM in data set [1]; 98 mM in data set [2]; 49 mM in data set [3]; 2.5 mM in data set [4]; 98 mM in data set [5]; 2.5 mM in data set [6]. For the same molecule, the pKa in data set [7] (33.3% methanol, 50 mM D-fructose, read-out: pKa +D-fructose (50 mM)) was determined as 6.61; in data set [7] (33.3% methanol, 50 mM D-glucose, read-out: pKa +D-glucose (50 mM)) it was 8.34; in data set [7] (solution contained 33.3% methanol, no sugar, read-out: pKa Alone) it was 9.14.
